In paper PMC7725506, “Functional Diversification of SRSF Protein Kinase to Control Ubiquitin-Dependent Neurodevelopmental Signaling” (Developmental Cell, 2020):

Key:
[1] = system: Ser-Arg rich splicing factors (SRSF); assay: SRSF phosphorylation in mESCs, immunoblotting with phosphoepitope SR proteins antibody; assay type: cell-based, mouse; details: 10 μM, 4 h
Method: SRSF phosphorylation, SRPK1, SRPK2, and ERK1/2 levels were determined by immunoblotting. […] Quantification of SRSF phosphorylation (Right). Data represented as mean ± SEM (n = 4). […] Data represented as mean ± SEM (n = 3). One-way ANOVA followed by Tukey’s multiple comparisons test; confidence level 95%.
All compounds were diluted in DMSO and mESCs treated with 10 μM inhibitor for 4 h prior lysis unless indicated otherwise.
SDS-PAGE electrophoresis and immunoblotting was performed using standard methods. Cells were lysed in lysis buffer (20 mM Tris [pH 7.4], 150 mM NaCl, 1 mM EDTA, 1% NP-40 [v/v], 0.5% sodium deoxycholate [w/v], 10 mM β-glycerophosphate, 10 mM sodium pyrophosphate, 1 mM NaF, 2 mM Na3VO4, and Roche Complete Protease Inhibitor Cocktail Tablets). Phospho-specific antibodies were used at 1 μg/ml with 10 μg/ml of the corresponding non-phosphopeptide. After secondary antibody incubation, membranes were subjected to chemiluminescence detection with Immobilon Western Chemiluminescent HRP Substrate (Millipore) using a Gel-Doc XR+ System (Bio-Rad) or Infrared detection using a LI-COR Odyssey Clx system.

[2] = molecular target: 50 representative kinases; assay: Kinase inhibitor profiling, in vitro kinase assays for 50 representative kinases; assay type: biochemical; details: 1 μM, SRPK1 compared with 49 other kinases
Method: Kinase activity towards specific peptides was assessed in comparison to DMSO control. Full details are available at http://www.kinase-screen.mrc.ac.uk/services/express-screen.
Supplemental Figure Legends
Figure S1. Differential inhibitor sensitivities and expression profiles of SRPK kinases (Related to Figure 1). (A) Wild-type (WT) mESCs were analysed for protein copy number by absolute quantitative proteomics. SRPK1, SRPK2 and SRPK3 protein copy numbers are shown.
Data are represented as mean ± S.E.M. (n=3). Unpaired Student’s t test, two-sided, confidence level 95%. (****) P<0.0001. ND = not detected. (B) Inhibition of RNF12 phosphorylation in vitro by SRPK1 and SRPK2 in the presence of varying concentrations of the indicated SRPK inhibitors was determined by immunoblotting for RNF12 phospho-Ser214 (Left). RNF12 levels are shown as a control. Immunoblots were quantified to generate SRPK inhibitor dose-response curves for inhibition of RNF12 phosphorylation by SRPK1 and SRPK2 in vitro (Right). (C) WT, Srpk1-/- and Srpk2-/- mESCs were cultured and SRPK protein expression was analysed via immunoblotting. […]
SR-motif phosphorylation of HA-immunoprecipitated RNF12 analysed by phos-tag immunoblotting. […]
(DYRK1A inhibitor), WEHI-345 (RIPK2 inhibitor), IRAK-4-Inhibitor-a (IRAK4 inhibitor) and GSK-461364 (PLK1/2 inhibitor) for 4 h, and RNF12 phosphorylation analysed via phos-tag immunoblotting. […]

[3] = molecular target: SRPK2 (Homo sapiens, UniProt P78362); assay: REX1 fluorescent ubiquitylation assay with recombinant RNF12 incubated with SRPK2; assay type: biochemical; details: pre-incubation with 10 μM
Chain of SRPK2 (P78362 1-699 isoform P78362-2): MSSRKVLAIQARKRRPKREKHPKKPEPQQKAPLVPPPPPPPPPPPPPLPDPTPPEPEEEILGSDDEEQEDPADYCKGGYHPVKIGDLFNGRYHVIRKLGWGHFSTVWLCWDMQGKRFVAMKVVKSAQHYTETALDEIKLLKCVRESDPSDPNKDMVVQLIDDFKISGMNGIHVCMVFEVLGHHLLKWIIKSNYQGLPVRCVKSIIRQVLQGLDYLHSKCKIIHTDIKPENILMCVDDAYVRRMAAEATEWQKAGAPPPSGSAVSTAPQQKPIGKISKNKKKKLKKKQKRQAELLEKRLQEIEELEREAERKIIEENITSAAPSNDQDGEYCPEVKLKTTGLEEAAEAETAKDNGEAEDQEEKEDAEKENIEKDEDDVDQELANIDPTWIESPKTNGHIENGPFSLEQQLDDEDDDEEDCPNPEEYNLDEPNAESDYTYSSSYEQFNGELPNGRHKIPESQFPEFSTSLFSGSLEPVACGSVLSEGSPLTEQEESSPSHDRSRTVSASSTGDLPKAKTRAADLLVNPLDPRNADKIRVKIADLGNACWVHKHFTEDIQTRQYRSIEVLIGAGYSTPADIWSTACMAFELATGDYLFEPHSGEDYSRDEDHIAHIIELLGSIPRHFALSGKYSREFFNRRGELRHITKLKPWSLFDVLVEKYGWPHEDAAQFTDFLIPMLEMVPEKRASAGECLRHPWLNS
Method: Infrared scans of ubiquitylated substrate signal (Top) and quantification (Bottom). Data represented as mean ± SEM (n = 3). […] (^∗) p = 0.0350. Phospho-Ser214 and total RNF12, REX1, and SRPK2 infrared immunoblots are shown. ^∗ = non-specific fluorescent signal. (B) Recombinant RNF12 was incubated with WT or kinase dead (KD) SRPK2 and subjected to REX1 fluorescent ubiquitylation assays. Infrared scans of ubiquitylated substrate signal (Top) and quantification (Bottom). Data represented as mean ± SEM (n = 3). […] (^∗∗∗∗) p < 0.0001. Phospho-Ser214 and total RNF12, REX1, and SRPK2 infrared immunoblots are shown. ^∗ = non-specific fluorescent signal. (C) Recombinant RNF12 was incubated with WT or KD SRPK2 and SMAD7 ubiquitylation assessed. Infrared scans of ubiquitylated substrate signal (Top) and quantification (Bottom). Data represented as mean ± SD (n = 2). Phospho-Ser214 and total RNF12, REX1, and SRPK2 infrared immunoblots are shown. ^∗ = non-specific fluorescent signal. (D) Recombinant RNF12 was incubated with WT (pRNF12) or KD (unpRNF12) SRPK2 and subjected to E2 ubiquitin discharge assay. Infrared immunoblot scans (Top Left), reaction rate determinations (Top Right) and normalized quantification of E2-ubiquitin conjugate signal (Bottom) are shown. […] RNF12, REX1, phospho-Ser214 RNF12 and SRPK1 infrared immunoblots (Top) and RNF12-REX1 binding quantification (bottom) are shown. […]

## CCc1cc2c(cc1-c1cccc(S(=O)(=O)F)c1)C(C)(C)c1[nH]c3cc(C#N)ccc3c1C2=O [SRPKIN-1]
[1]
  phosphorylation of SRSF4: only slightly inhibited
  phosphorylation of SRSF6/11, SRSF5/7/10: not significantly altered
[2]
  kinase inhibition specificity: highly specific
[3]
  enhancement of REX1 ubiquitylation following RNF12 phosphorylation by SRPK2: not observed
